This note sets out measurements from US7141595B2, “Amino benzothiazole compounds with NOS inhibitory activity” (Neuraxon Inc., priority 2002, dated 2006).

Test [1] has as its target T1, eNOS (UniProt P29473).
T1 sequence (P29473 1-1205): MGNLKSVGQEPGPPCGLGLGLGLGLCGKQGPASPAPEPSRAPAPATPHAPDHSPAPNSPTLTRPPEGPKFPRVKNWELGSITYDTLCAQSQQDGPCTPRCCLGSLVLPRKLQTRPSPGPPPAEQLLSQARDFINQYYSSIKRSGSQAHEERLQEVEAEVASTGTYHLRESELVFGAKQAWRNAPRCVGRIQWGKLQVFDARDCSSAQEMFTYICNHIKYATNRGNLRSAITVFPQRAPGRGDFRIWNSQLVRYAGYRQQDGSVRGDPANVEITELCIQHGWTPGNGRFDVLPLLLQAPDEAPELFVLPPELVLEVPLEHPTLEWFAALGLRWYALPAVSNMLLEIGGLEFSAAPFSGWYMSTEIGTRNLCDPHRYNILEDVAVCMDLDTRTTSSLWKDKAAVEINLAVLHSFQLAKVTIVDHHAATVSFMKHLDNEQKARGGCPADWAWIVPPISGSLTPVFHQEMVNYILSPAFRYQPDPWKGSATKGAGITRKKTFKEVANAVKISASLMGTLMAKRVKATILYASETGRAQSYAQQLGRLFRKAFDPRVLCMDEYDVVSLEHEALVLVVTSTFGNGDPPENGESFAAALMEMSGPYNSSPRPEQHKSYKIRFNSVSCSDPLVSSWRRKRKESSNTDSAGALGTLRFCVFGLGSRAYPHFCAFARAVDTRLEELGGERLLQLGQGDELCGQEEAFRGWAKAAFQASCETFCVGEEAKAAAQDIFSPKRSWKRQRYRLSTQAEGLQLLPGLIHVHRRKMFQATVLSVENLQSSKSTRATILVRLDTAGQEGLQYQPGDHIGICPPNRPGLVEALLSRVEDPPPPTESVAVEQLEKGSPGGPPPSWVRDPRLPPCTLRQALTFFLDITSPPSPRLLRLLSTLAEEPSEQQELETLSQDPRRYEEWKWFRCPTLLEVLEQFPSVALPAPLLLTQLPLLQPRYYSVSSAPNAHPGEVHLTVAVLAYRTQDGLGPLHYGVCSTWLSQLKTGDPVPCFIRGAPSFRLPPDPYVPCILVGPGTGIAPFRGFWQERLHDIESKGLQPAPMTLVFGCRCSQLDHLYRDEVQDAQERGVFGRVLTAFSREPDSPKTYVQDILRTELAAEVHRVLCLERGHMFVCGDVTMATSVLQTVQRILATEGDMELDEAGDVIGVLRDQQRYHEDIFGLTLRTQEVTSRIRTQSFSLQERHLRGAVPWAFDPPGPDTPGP
The experiment in a line: eNOS enzyme assay (hemoglobin capture assay). The class given is biochemical. Conditions: initial velocity, read-out: IC50 of NOS, eNOS. Here is the method:
The generation of nitric oxide by NOS was measured using the hemoglobin capture assay (Proc. Natl. Acad. Sci., U.S.A. 1990, 87, 714; Huang et al. J. Med. Chem. 2000, 43, 2938). An assay mixture for nNOS contained 10 mM L-arginine, 1.6 mM CaCl2, […] calmoduline, […], 6.5 mM BH4 and 3 mM oxyhemoglobin in 100 mM Hepes (pH 7.5). The reaction mixture for iNOS contained 10 mM of L-arginine, […], 6.5 mM BH4 and 3 mM oxyhemoglobin in 100 mM Hepes (pH 7.5). All assays were in a final volume of […] and were initiated with enzyme. Nitric oxide reacts with oxyhemoglobin to yield methehemoglobin which is detected at 401 nm (ε=19,700 M^−1cm^−1) on a Perkin-Elmer Lamda 10 UV/vis spectrophotometer.
(§1) IC50 and percent inhibition of NOS by the compounds of the invention were determined under initial velocity measurement condition with hemoglobin capture assay as described above using varying concentrations of the compounds of the invention.

For test [2], the target named is nNOS (UniProt P29476). The experiment in a line: nNOS enzyme assay (hemoglobin capture assay). Format: biochemical. To be noted: initial velocity, read-out: IC50 of NOS, nNOS. As to the method: (§2) The reaction mixture for iNOS contained 10 mM of L-arginine, […], 6.5 mM BH4 and 3 mM oxyhemoglobin in 100 mM Hepes (pH 7.5). All assays were in a final volume of […] and were initiated with enzyme.
as §1

Test [3] addresses T2, iNOS (UniProt P29477).
T2 sequence (P29477 1-1144): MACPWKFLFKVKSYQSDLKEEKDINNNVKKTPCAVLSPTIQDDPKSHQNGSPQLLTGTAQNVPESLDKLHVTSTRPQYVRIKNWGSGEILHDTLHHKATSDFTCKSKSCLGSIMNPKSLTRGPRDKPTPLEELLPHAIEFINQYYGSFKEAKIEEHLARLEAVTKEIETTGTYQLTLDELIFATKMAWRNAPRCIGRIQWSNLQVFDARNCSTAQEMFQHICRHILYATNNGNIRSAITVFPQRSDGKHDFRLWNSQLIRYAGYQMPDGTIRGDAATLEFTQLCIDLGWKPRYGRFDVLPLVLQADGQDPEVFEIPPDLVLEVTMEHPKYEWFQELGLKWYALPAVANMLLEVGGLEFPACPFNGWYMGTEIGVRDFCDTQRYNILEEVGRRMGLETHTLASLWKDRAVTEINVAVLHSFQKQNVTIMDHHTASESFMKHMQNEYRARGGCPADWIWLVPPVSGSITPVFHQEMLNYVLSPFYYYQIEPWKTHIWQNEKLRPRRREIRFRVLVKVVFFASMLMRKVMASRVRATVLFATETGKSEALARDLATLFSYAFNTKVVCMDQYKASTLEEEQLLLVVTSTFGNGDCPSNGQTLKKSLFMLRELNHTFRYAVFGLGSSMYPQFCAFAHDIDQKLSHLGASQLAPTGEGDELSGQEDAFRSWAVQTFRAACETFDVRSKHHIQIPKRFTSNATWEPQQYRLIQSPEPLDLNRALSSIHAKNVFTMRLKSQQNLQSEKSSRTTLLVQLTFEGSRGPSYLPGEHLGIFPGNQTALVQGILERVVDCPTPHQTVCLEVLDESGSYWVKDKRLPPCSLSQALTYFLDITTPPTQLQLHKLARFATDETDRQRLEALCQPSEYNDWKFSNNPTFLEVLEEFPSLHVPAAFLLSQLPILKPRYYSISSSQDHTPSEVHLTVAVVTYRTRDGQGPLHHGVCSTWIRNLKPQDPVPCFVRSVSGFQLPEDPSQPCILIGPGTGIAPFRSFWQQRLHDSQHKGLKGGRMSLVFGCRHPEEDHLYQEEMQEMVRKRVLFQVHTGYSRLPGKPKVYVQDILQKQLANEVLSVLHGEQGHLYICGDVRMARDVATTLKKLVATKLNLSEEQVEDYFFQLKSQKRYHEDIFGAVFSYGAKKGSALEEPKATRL
The experiment in a line: iNOS enzyme assay (hemoglobin capture assay). The class given is biochemical. To be noted: initial velocity, read-out: IC50 of NOS, iNOS. Here is the method:
as §2, §1

Test [4] has as its system Rat cortical neuronal cultures. The experiment in a line: Neuroprotection of rat cortical cells against NMDA challenge. Format: cell-based. To be noted: 25 μM NMDA 30 minutes; 60-minute pre-incubation; % cell death by propidium iodide after 24 hrs. Here is the method: Rat cortical neuronal cultures were exposed for 30 minutes to 25 μM NMDA in buffer with or without the test compounds according to previously reported procedures (J. Neurosci. 2000 October 1; 20(19):7183–92). Test compounds were added for a 60-minute pre-incubation period in order to maximize the chance of seeing neuroprotection. After 24 hrs cultures were treated with propidium iodide and the % cell death determined.

Molecules are shown by their SMILES. Counter-ions that a name gives are not always drawn. Where only a bound is given, the exact number is not on record here.

One may read the IC50 as the concentration needed to halve the response being measured. For `CSC(=N)Nc1ccc2nc(N)sc2c1` [Example 4, N-(2-Amino-benzothiazol-6-yl)-2-methylthiocarboximidamide], the IC50 was found to be 83.3 µM in test [1], 4.2 µM in test [2] and 327 µM in test [3].
Consider `N=C(Nc1ccc2nc(N)sc2c1)c1cccs1` [Example 9, N-(2-Amino-benzothiazol-6-yl)-2-thiophenecarboximidamide], for which, in test [1], the half-maximal inhibitory concentration (IC50) was found to be 119 µM.
On to `N=C(Nc1ccc2nc(NCCN3CCCC3)sc2c1)c1cccs1` [Example 13, N-[2-(2-pyrrolidin-1-ylethylamino)-benzothiazol-6-yl]-2-thiophenecarboximidamide], for which the IC50 in test [1] amounted to 100 µM; in test [2], 11.9 µM; in test [3], 125 µM.
In the case of `Nc1nc2cc(NC(=S)NC(=O)c3ccccc3)ccc2s1` [Example 17, 1-(2-Amino-benzothiazol-5-yl)-3-benzoyl-thiourea], the IC50 in test [1] worked out at 94 µM; in test [2], 32.1 µM; in test [3] it was 275 µM.
The matching figures for `NC(=S)Nc1ccc2sc(N)nc2c1` [Example 18, (2-Amino-benzothiazol-5-yl)-thiourea]: 145 µM, 57.8 µM and 123 µM.
In the case of `N=C(Nc1ccc2sc(N)nc2c1)c1cccs1` [Example 20, N-(2-Amino-benzothiazol-5-yl)-thiophene-2-carboxamidine hydrobromide], the IC50 in test [1] turned out to be 169 µM; in test [3], 73 µM.
For the compound `N=C(Nc1ccc2nc(NCCc3cnc[nH]3)sc2c1)c1cccs1` [Example 36(e), N-{2-[2-(3H-Imidazol-4-yl)-ethylamino]-benzothiazol-6-yl}-thiophene-2-carboxamidine], the “neuroprotection during NMDA challenge” value in test [4] was “neuroprotection observed”.
As to `N=C(Nc1ccc2nc(NCCc3ccc(Br)cc3)sc2c1)c1cccs1` [Example 36b, N-{2-[2-(4-Bromo-phenyl)-ethylamino]-benzothiazol-6-yl}-thiophene-2-carboxamidine], the IC50 turned out to be 110 µM in test [1], 1.46 µM in test [2] and 91 µM in test [3].
As to `N=C(Nc1ccc2nc(NC3CCN(Cc4ccccc4)CC3)sc2c1)c1cccs1` [Example 36d, N-[2-(1-Benzyl-piperidin-4-ylamino)-benzothiazol-6-yl]-thiophene-2-carboxamidine], the concentration for half-maximal inhibition (IC50) in test [1] was 210 µM; in test [2], 1.6 µM; in test [3], 163 µM.
Turning to `N=C(Nc1ccc2nc(NCCN3CCOCC3)sc2c1)c1cccs1` [Example 36f, N-[2-(2-Morpholin-4-yl-ethylamino)-benzothiazol-6-yl]-thiophene-2-carboxamidine], the IC50 in test [1] and in test [3] was above 300 µM each time. The “neuroprotection during NMDA challenge” value in test [4] is recorded as “neuroprotection observed”.
